A melting point compilation (Tetko et al.; mined from patent text by program, amines drawn as free bases though some values may be those of a salt)

| melting point | Structure (SMILES) |
| --- | --- |
| 192 °C | Nc1nc2ccc(OS(=O)(=O)c3ccc(F)cc3)cc2[nH]1 |
| 193 to 197 °C | Cn1ccc2ncnc(Oc3ccc(NC(=O)Nc4cc(C(F)(F)F)ccc4F)c(Cl)c3)c21 |
| 44 to 47 °C | COc1ccccc1N1CCN(C[C@H]2COc3ccc4nc(C)ccc4c3O2)CC1 |
| 168 to 173 °C | COC(=O)[C@H]1CC[C@H](NC(=O)c2cc(-c3ccc(C(=N)N)cc3)nn(Cc3ccccc3)c2=O)CC1 |
| 128 to 130 °C | CCc1nc2c(N)nc3ccc(O)cc3c2n1CCCCNS(C)(=O)=O |
| 135 to 137 °C | CC(=O)C(Cc1c(CCN(C)C)[nH]c2ccccc12)(c1ccccc1)c1ccccc1 |
| 219 to 220 °C | Cc1cc(C)n(-c2nc(Nc3ccc(C(F)(F)F)cc3)c3ccccc3n2)n1 |
| 173 to 174 °C | Cc1ccc(S(=O)(=O)N(C)c2ccc(O)cc2)cc1[N+](=O)[O-] |
| 110 to 117 °C | Cc1ccc2c(c1)c(N1CCN(C(=O)c3cccs3)CC1)c(C#N)c(=O)n2CCN(C)C |
| 78 to 80 °C | CN(C)C(=O)COc1ccc(-c2ccc(C3COC(c4c(F)cccc4F)=N3)cc2)cc1 (configuration not stated) |
| 203 to 204 °C | COc1ccccc1-n1c(=O)[nH]c2c(C(N)=O)nc(-c3ccc4cc[nH]c4c3)nc21 |
| 205 to 210 °C | CCc1ccc2c(c1)C=Cc1oc(C)nc1C2c1cn(-c2ccnc(NCC(=O)Nc3nc(CC(=O)O)cs3)n2)c(=O)[nH]c1=O (configuration not stated) |
| 224 °C | NS(=O)(=O)c1cccc(-c2cccc(-c3nc(-c4ccc(C(F)(F)F)cc4F)cc(C(F)(F)F)n3)c2)c1 |
| 66 to 68 °C | CCCCCCCN(CCCCCS(=O)(=O)c1nc(-c2ccccc2)c(-c2ccccc2)[nH]1)C(=O)Nc1ccc(F)cc1F |
| 115 to 117 °C | CNc1cc(S(=O)(=O)c2cccc(C(F)(F)F)c2)cc(Br)n1 |
| 122 to 124 °C | CCn1cc(CN(C(=O)C2CCCc3cc(OCc4ccccc4)ccc32)c2ccc(C(C)C)cc2)cn1 (configuration not stated) |
| 66 to 67 °C | O=C(CCc1ccc(F)cc1)c1ccc(C(F)(F)F)cc1 |
| 122 °C | COCCOc1ccc(/C=C(\C)C(=O)O)c(Oc2ncc(C(F)(F)F)cc2Cl)c1 |
| 198 °C | Cc1cccc2c(=O)nc(-c3ccccn3)sc12 |

| melting point | Structure (SMILES) |
| --- | --- |
| 88.4 to 89.4 °C | C#Cc1cc([C@@H](C)NC(=O)Nc2ccc(C(C)(C)C)cc2)ccc1NS(C)(=O)=O |
| 178 °C | N#Cc1ccc(NC(=O)[C@H](CC(=O)O)NCc2ccccc2)cc1 |
| 130 to 132 °C | COc1ccc2c(c1)C(=O)C(=Cc1nccs1)CO2 |
| 176 to 189 °C | Cc1cc(NC(=O)NC(=O)c2ccccc2Cl)nc(C)c1-c1ccccc1 |
| 107 to 114 °C | COC(=O)NC1CN(C(=O)Nc2ccc(OC(F)(F)F)cc2)NC1c1ccc(Cl)cc1 (configuration not stated) |
| 176 to 178 °C | N#Cc1c(N2CCCCC2)cc(-c2ccc(F)cc2)c2c1-c1ccccc1C2 |
| 105 to 107 °C | Cc1c(C)c(Cl)c(C(=O)c2ccccc2)c(C)c1Cl |
| 188 to 192 °C | COc1ccc(C(=O)O)cc1NC(=O)C(CS)Cc1ccccc1 (configuration not stated) |
| 284 to 286 °C | COc1ccc(C(=O)Nc2c(Cl)cncc2Cl)c2c1OCC2CC(=O)NCc1ccccc1 (configuration not stated) |
| 130 to 133 °C | CNC(=O)N(O)C(C)c1ccc(F)cc1 (configuration not stated) |
| 222 to 223 °C | Cc1ccc(-c2nn(-c3ccc(Br)cc3)c(N)c2C(N)=O)cc1 |
| 208 to 209 °C | OC1CSC(Oc2cncc(-c3ccc(F)cc3)c2)C(O)C1O (configuration not stated) |
| 168 °C | Cc1nn(CC(F)F)c(-c2ccc(F)cc2)c1-c1ccc2c(c1)NC(=O)CO2 |
| 259 to 261 °C | COc1cc(C(=O)O)ccc1Cc1csc2ccc(NC(=O)OC3CCCC3)cc12 |
| 183 to 184 °C | NC(=S)Nc1ccccc1-c1ccccc1 |
| 132 to 134 °C | COc1ccc(C(=O)Nc2cccc(C(C)(C)CNC(C)=O)c2)cc1OC |
| 168 °C | CCCCc1nc(SCC)c(C(=O)O)n1Cc1ccc(C(=O)O)cc1 |
| 152 to 153 °C | c1cncc(Cn2c(-c3ccc4c(c3)OCO4)nc3ccccc32)c1 |
| 211 to 212 °C | O=C(C(=O)c1ccc([N+](=O)[O-])cc1)c1ccc([N+](=O)[O-])cc1 |

| melting point | Structure (SMILES) |
| --- | --- |
| > 250 °C | CN(C)C(=O)CN1CCC(c2ccc(Nc3nc4c(-c5ccc[nH]c5=O)cccn4n3)cc2)CC1 |
| 165 to 168 °C | COc1ccc(C(=O)Nc2ccccc2)cc1NC(=S)Nc1cccc(Cl)c1 |
| 218 to 220 °C | COc1cc(C=O)ccc1Oc1nc(Nc2cccc(C(=O)O)c2)nc(Oc2ccccc2)n1 |
| 214 to 218 °C | O=c1c(-c2ccccc2)c(CSc2ncnc3[nH]cnc23)oc2ccc(Br)cc12 |
| 66 to 69 °C | c1ccc2c(c1)N=C(N1CCNCC1)c1ccccc1S2 |
| 126 to 127 °C | O=C(O)CC(=O)N(c1ccccc1)c1ccccc1 |
| 234 to 235 °C | Cc1cccc(C(=O)NC(Nc2c(Nc3cccnc3Cl)c(=O)c2=O)C(C)(C)Cc2ccccc2)c1 (configuration not stated) |
| 162 to 165 °C | CC(C)(C)OC(=O)N1CCN(c2cccc(Cl)c2/C=N/NS(=O)(=O)c2ccccc2)CC1 |
| 217 to 218 °C | O=C(N[C@H](Cc1ccc(C(F)(F)F)cc1)[C@@H](O)c1cccc2ccccc12)c1cccc2ccccc12 (racemic) |
| 163 to 167 °C | CCOc1cc(OC(C)C)ccc1-c1nc(-c2ccc(OC(C)C)cc2O)nc(-c2ccc(OC(C)C)cc2O)n1 |
| 73 to 75 °C | CCOC(=O)C(N=C(c1ccc(Cl)cc1)c1ccc(OC)cc1O)C(=O)OCC |
| 115 to 116 °C | O=C(CSCc1ccc(F)cc1)NO |
| 138 to 145 °C | COc1ccccc1NC(=O)Nc1nc(Nc2ccccc2-c2ccccc2)nc(N2Cc3ccccc3CC2C(=O)O)n1 (configuration not stated) |
| 184 to 186 °C | CC(=O)NCC12CC(c3ccccc31)c1ccccc12 |
| 178 °C | Cc1ccc(C(OS(=O)(=O)c2c(C)cc(C)c(S(=O)(=O)OC(c3ccc(C)cc3)(C(F)(F)F)C(F)(F)F)c2C)(C(F)(F)F)C(F)(F)F)cc1 |
| > 250 °C | CC(=O)NNc1ccnc2c(NC(=O)c3c(Cl)cccc3Cl)cc(C)c(C)c12 |
| 262 to 268 °C | O=C(O)c1cc(F)ccc1Nc1ccnc2c(C(F)(F)F)cccc12 |
| 192 to 194 °C | CN1CCN(Cc2ccccc2)CC(NC(=O)c2n[nH]c3ccccc23)C1 (configuration not stated) |
| 194 to 195 °C | Cc1nc(CCOc2ccc(CC3SC(=N)NC3=O)cc2)oc1-c1ccccc1 (configuration not stated) |

More lines, now with the values behind:

| Structure (SMILES) | melting point |
| --- | --- |
| CN(C)CCCCCCCCCCC(=N)NC(=S)Nc1ccc(Cl)cc1 | 130 to 132 °C |
| Cc1ccc(C(O[Si](C)(C)C(C)(C)C)C(=O)NCCO)cc1 (configuration not stated) | 69 to 70 °C |
| N=C(N)c1cccc(Cc2c[nH]cn2)c1O | 249 °C |
| Oc1nc2cc(Cl)ccc2n2cnnc12 | > 300 °C |
| CC(C)(CCCCCCNS(=O)(=O)c1ccc(Cl)cc1)C(=O)O | 95 to 96 °C |
| CC1(O)C=CC2C3CCC4=CC(=O)CCC4C3C(c3ccc(-c4ccc(C#N)cc4)cc3)CC21C (configuration not stated) | 206 °C |
| O=C(O)CC(Cn1cnc2c(=O)[nH]cnc21)C(=O)O (configuration not stated) | 130 to 135 °C |
| CC(C)(C)C(=O)Oc1cc([N+](=O)[O-])cc([N+](=O)[O-])c1O | 132 to 135 °C |
| C=C1CCCc2c(C(=O)OCC)n(C)c3cccc1c23 | 45 to 49 °C |
| CN(C)c1nc2ccccc2n2cnnc12 | 184 to 186 °C |
| CC(C)(C)NCC(O)c1cc(Cl)c(N)c([N+](=O)[O-])c1 (configuration not stated) | 148 to 149 °C |
| CC(O)=C(C#N)C(=O)Nc1cc(Cl)ccc1Cl | 143 to 144 °C |
| O=C(O)c1ccc2c(c1)CCC(CO)O2 (configuration not stated) | 150 °C |
| [N-]=[N+]=N[C@@H]1c2cc(F)ccc2Oc2ccccc2[C@H]1C[C@@H](O)COC(c1ccccc1)(c1ccccc1)c1ccccc1 | 58 to 59 °C |
| CNc1nc(-c2ccncc2)n[nH]1 | 228 to 230 °C |
| Clc1ccc(OC2CN(C(c3ccccc3)c3ccccc3)C2)cc1 | 113 to 114 °C |
| Cc1nc2scc(C)n2c(=O)c1CCN1CCC(c2c[nH]c3ccccc23)CC1 | 275 °C |
| CCOC(=O)CNC(=O)[C@H](CC(C)C)NC(=O)[C@@H]1CCCN1C(=O)OCc1ccccc1 | 149 to 150 °C |
| CCC(C(=O)N(CC)CC)n1cc(C)c(-c2ccccc2)n1 (configuration not stated) | 80 to 82 °C |
| O=Cc1ccc(C2CCCc3cncn32)cc1 (configuration not stated) | 131 °C |

| Structure (SMILES) | melting point |
| --- | --- |
| COc1ccc2c(c1)CCC1CCN(C)C(=O)C(CC(C)=O)=C21 (configuration not stated) | 190 to 192 °C |
| Cc1cc(C)n2nc(NS(=O)(=O)c3cc(Cl)ccc3Cl)nc2n1 | 216 to 218 °C |
| O=C1CC(OC(CBr)CBr)N1 (configuration not stated) | 80 to 80.5 °C |
| COC(=O)Nc1ccc(C(=O)OC)nc1 | 211 to 213 °C |
| CCC(C(C)=CC(CNC(=O)c1ccc2c(c1)CC(=O)N2)=NO)[N+](=O)[O-] (configuration not stated) | 111 to 114 °C |
| O=S(=O)(CC(F)(F)F)c1nc2cc(Cl)c(Cl)cc2[nH]1 | 190 to 192 °C |
| CCOC(=O)c1c2n(c3cc(N4CCN(Cc5oc(=O)oc5C)CC4)c(F)cc3c1=O)C(C)S2 (configuration not stated) | 241 to 243 °C |
| CCS(=O)(=O)c1ccc2c(c1)nc(CC(C)(C)C)n2CC1CCCO1 (configuration not stated) | 142 °C |
| CCC(CC)Nc1cc(C)nc2c1nnn2-c1c(C)cc(C)cc1C | 131 to 133 °C |
| COc1cc(N)c(Cl)cc1C(=O)NC1CCN(CCCC(=O)N2C(C)CCCC2C)CC1OC (configuration not stated) | 202 °C |
| COC(=O)CNC(=O)CC(=O)CBr | 76 to 77 °C |
| CCOC(=O)C1COc2ccc(NC(C)=O)cc2O1 (configuration not stated) | 138 to 140 °C |
| CCOC(=O)c1ccc2nc(N)oc2c1 | 211 to 212 °C |
| CC(C)C[C@H](NC(=O)C(CS)C(F)(F)F)C(=O)O (some centres not stated) | 132 to 134 °C |
| CCOC(=O)C(C(=O)OCC)N(Cc1ccc(OC)cc1OC)C(=O)CCl | 83 to 84 °C |
| CCCCCCC(=O)c1ccc(OCC(=O)O)c(Cl)c1Cl | 104 to 105 °C |
| CCCCCCCCCCCC(=O)N1CCN(CCO)CC1 | 38 to 40 °C |
| CCc1cc(CC)c(-c2c(O)c(C)nn(C)c2=O)c(CC)c1I | 217 to 219 °C |
| COc1ccccc1[N+]1([O-])CCNCC1 | 157 to 160 °C |
| COc1cc2c(cc1Nc1ncc(Cl)c(Nc3ccccc3S(=O)(=O)N(C)C)n1)CCN(CC(=O)N1CCN(C)CC1)CC2 | 140 °C |
